43 molecules from US7473688B2, “Indolobenzazepine HCV NS5B inhibitors” (Bristol-Myers Squibb Company, priority 2005, dated 2009) can be followed below.

Structures are written as SMILES. Bounds are passed on as bounds.

T1 sequence (Q9WMX2 2420-2992): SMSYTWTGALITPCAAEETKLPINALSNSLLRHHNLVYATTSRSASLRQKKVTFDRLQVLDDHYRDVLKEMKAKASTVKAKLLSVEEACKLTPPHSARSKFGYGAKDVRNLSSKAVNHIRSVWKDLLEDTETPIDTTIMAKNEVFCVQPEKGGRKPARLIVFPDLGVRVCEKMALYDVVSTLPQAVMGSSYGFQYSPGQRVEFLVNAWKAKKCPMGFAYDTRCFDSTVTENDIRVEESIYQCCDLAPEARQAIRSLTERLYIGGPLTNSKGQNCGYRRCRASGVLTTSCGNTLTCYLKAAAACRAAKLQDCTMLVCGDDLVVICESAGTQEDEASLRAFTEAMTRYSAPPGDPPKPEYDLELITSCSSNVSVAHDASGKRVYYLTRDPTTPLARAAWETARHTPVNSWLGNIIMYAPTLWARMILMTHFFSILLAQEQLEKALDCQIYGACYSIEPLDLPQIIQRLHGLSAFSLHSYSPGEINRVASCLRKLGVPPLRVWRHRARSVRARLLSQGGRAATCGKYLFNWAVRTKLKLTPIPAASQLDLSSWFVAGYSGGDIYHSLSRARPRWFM

The first assay addresses T1, HCV NS5B (Hepatitis C virus genotype 1b, UniProt Q9WMX2).
T1 construct: The protein was expressed with an 18 amino acid C-terminal truncation to enhance the solubility; made in house; host or cells: E. coli BL21 (DE3), pET21a
Kind of assay: HCV NS5B RdRp enzyme assay (preincubation protocol). The format is biochemical. As to conditions: Table 1a, read-out: IC50*. The protocol:
HCV NS5B RdRp cloning, expression, and purification. The cDNA encoding the NS5B protein of HCV, genotype 1b, was cloned into the pET21a expression vector. The protein was expressed with an 18 amino acid C-terminal truncation to enhance the solubility. The E. coli competent cell line BL21 (DE3) was used for expression of the protein. Cultures were grown at 37° C. for ˜4 hours until the cultures reached an optical density of 2.0 at 600 nm. The cultures were cooled to 20° C. and induced with 1 mM IPTG. Fresh ampicillin was added to a final concentration of 50 μg/ml and the cells were grown overnight at 20° C.
Cell pellets (3L) were lysed for purification to yield 15-24 mgs of purified NS5B. The lysis buffer consisted of 20 mM Tris-HCl, pH 7.4, 500 mM NaCl, 0.5% triton X-100, 1 mM DTT, 1 mM EDTA, 20% glycerol, 0.5 mg/ml lysozyme, 10 mM MgCl2, 15 ug/ml deoxyribonuclease I, and Complete TM protease inhibitor tablets (Roche). After addition of the lysis buffer, frozen cell pellets were resuspended using a tissue homogenizer. To reduce the viscosity of the sample, aliquots of the lysate were sonicated on ice using a microtip attached to a Branson sonicator. The sonicated lysate was centrifuged at 100,000×g for 1 hr at 4° C. and filtered through a 0.2 μm filter unit (Corning).
The protein was purified using three sequential chromatography steps: Heparin sepharose CL-6B, polyU sepharose 4B, and Hitrap SP sepharose (Pharmacia). The chromatography buffers were identical to the lysis buffer but contained no lysozyme, deoxyribonuclease I, MgCl2 or protease inhibitor and the NaCl concentration of the buffer was adjusted according to the requirements for charging the protein onto the column. Each column was eluted with a NaCl gradient which varied in length from 5-50 column volumes depending on the column type. After the final chromatography step, the resulting purity of the enzyme is >90% based on SDS-PAGE analysis. The enzyme was aliquoted and stored at −80° C.
Standard HCV NS5B RdRp enzyme assay. HCV RdRp genotype 1b assays were run in a final volume of 60 μl in 96 well plates (Costar 3912). The assay buffer is composed of 20 mM Hepes, pH 7.5, 2.5 mM KCl, 2.5 mM MgCl2, 1 mM DTT, 1.6 U RNAse inhibitor (Promega N2515), 0.1 mg/ml BSA (Promega R3961), and 2% glycerol. All compounds were serially diluted (3-fold) in DMSO and diluted further in water such that the final concentration of DMSO in the assay was 2%. HCV RdRp genotype 1b enzyme was used at a final concentration of 28 nM. A polyA template was used at 6 nM, and a biotinylated oligo-dT12 primer was used at 180 nM final concentration. Template was obtained commercially (Amersham 27-4110). Biotinylated primer was prepared by Sigma Genosys. 3H-UTP was used at 0.6 μCi (0.29 μM total UTP). Reactions were initiated by the addition of enzyme, incubated at 30° C. for 60 min, and stopped by adding […] of 50 mM EDTA containing SPA beads (4 μg/μl, Amersham RPNQ 0007). Plates were read on a Packard Top Count NXT after >1 hr incubation at room temperature.
Modified HCV NS5B RdRp enzyme assay. A modified enzyme assay was performed essentially as described for the standard enzyme assay except for the following: The biotinylated oligo dT12 primer was precaptured on streptavidin-coated SPA beads by mixing primer and beads in assay buffer and incubating at room temperature for one hour. Unbound primer was removed after centrifugation. The primer-bound beads were resuspended in 20 mM Hepes buffer, pH 7.5 and used in the assay at final concentrations of […] primer and 0.67 μg/μl beads. Order of addition in the assay: Enzyme (14 nM) was added to diluted compound followed by the addition of a mixture of template (0.2 nM), 3H-UTP (0.6 μCi, 0.29 μM), and primer-bound beads, to initiate the reaction; concentrations given are final. Reactions were allowed to proceed for 4 hours at 30° C.
IC50 values for compounds were determined using seven different [I]. […]
For orientation: IC50 means the midpoint of a concentration-inhibition curve. `COC(=O)c1ccc2c(C3CCCCC3)c3n(c2c1)CC(NC(=O)C1CCOCC1)Cc1ccccc1-3` (stereo not shown): the IC50 was over 1000 nM.

Regarding `O=C(O)c1ccc2c(C3CCCCC3)c3n(c2c1)CC(NC(=O)C1CCOCC1)Cc1ccccc1-3` (stereo not shown), the IC50 lay within 10 to 1000 nM.

In the case of `O=C(NCc1nc2ccccc2[nH]1)c1ccc2c(C3CCCCC3)c3n(c2c1)CC(C(=O)N1CCC(N2CCOCC2)CC1)=Cc1ccccc1-3`, the half-maximal inhibitory concentration (IC50) fell in the range of 10 to 1000 nM.

Turning to `COC(=O)[C@@H]1C[C@@H](O)CN1C(=O)C1=Cc2cc(OC)ccc2-c2c(C3CCCCC3)c3ccc(C(=O)NS(=O)(=O)N(C)C)cc3n2C1`, the IC50 is 10 to 1000 nM.

With `COc1ccc2c(c1)C=C(C(=O)N1CCN(C(C)=O)CC1)Cn1c-2c(C2CCCCC2)c2ccc(C(=O)NS(=O)(=O)N(C)C)cc21`, the IC50 was in the range of 10 to 1000 nM.

As to `COc1ccc2c(c1)C=C(C(=O)N1C[C@H](O)C[C@H]1C(=O)Nc1ccc3c(C)cc(=O)oc3c1)Cn1c-2c(C2CCCCC2)c2ccc(C(=O)NS(=O)(=O)N(C)C)cc21`, the IC50 is 10 to 1000 nM.

Consider `COc1ccc2c(c1)C=C(C(=O)N1CCN(C(=O)c3ccco3)CC1)Cn1c-2c(C2CCCCC2)c2ccc(C(=O)NS(=O)(=O)N(C)C)cc21`, for which the IC50 was 10 to 1000 nM.

Regarding `COc1ccc2c(c1)C=C(C(=O)N1CCN(c3ccccc3OC)CC1)Cn1c-2c(C2CCCCC2)c2ccc(C(=O)NS(=O)(=O)N(C)C)cc21`, the IC50 fell in the range of 10 to 1000 nM.

Regarding `COc1ccc2c(c1)C=C(C(=O)N1CCN(C(=O)N(C)C)CC1)Cn1c-2c(C2CCCCC2)c2ccc(C(=O)NS(=O)(=O)N(C)C)cc21`, the IC50 was in the range of 10 to 1000 nM.

Consider `COc1ccc2c(c1)C=C(C(=O)N1CCN(C(=O)N3CCCC3)CC1)Cn1c-2c(C2CCCCC2)c2ccc(C(=O)NS(=O)(=O)N(C)C)cc21`, for which the IC50 lay in the range of 10 to 1000 nM.

Turning to `COc1ccc2c(c1)C=C(C(=O)N1CCN(C(=O)N3CCCCC3)CC1)Cn1c-2c(C2CCCCC2)c2ccc(C(=O)NS(=O)(=O)N(C)C)cc21`, the IC50 was in the range of 10 to 1000 nM.

`COc1ccc2c(c1)C=C(C(=O)N1CCC(O)(c3cccnc3)CC1)Cn1c-2c(C2CCCCC2)c2ccc(C(=O)NS(=O)(=O)N(C)C)cc21`: the IC50 fell in the range of 10 to 1000 nM.

Regarding `COc1ccc2c(c1)C=C(C(=O)N1CCC3(CC1)OC(=O)c1ccccc13)Cn1c-2c(C2CCCCC2)c2ccc(C(=O)NS(=O)(=O)N(C)C)cc21`, the IC50 lay within 10 to 1000 nM.

As to `COC(=O)CNC(=O)CNC(=O)C1=Cc2cc(OC)ccc2-c2c(C3CCCCC3)c3ccc(C(=O)NS(=O)(=O)N(C)C)cc3n2C1`, the IC50 lay in the range of 10 to 1000 nM.

Consider `COc1ccc2c(c1)C=C(C(=O)N1CCN(C(=O)CO)CC1)Cn1c-2c(C2CCCCC2)c2ccc(C(=O)NS(=O)(=O)N(C)C)cc21`, for which the IC50 was 10 to 1000 nM.

For `CN(C)S(=O)(=O)NC(=O)c1ccc2c(C3CCCCC3)c3n(c2c1)CC(NC(=O)C1CCOCC1)Cc1ccccc1-3` (stereo not shown), the IC50 lay in the range of 10 to 1000 nM.

Turning to `CN(C)S(=O)(=O)NC(=O)c1ccc2c(C3CCCCC3)c3n(c2c1)C[C@@H](NC(=O)N1CCOCC1)Cc1ccccc1-3`, the IC50 fell in the range of 10 to 1000 nM.

Consider `CN(C)S(=O)(=O)NC(=O)c1ccc2c(C3CCCCC3)c3n(c2c1)C[C@H](NC(=O)N1CCOCC1)Cc1ccccc1-3`, for which the IC50 is 10 to 1000 nM.

As to `COc1ccc2c(c1)C=C(C(=O)NCCNC(C)=O)Cn1c-2c(C2CCCCC2)c2ccc(C(=O)NS(=O)(=O)N(C)C)cc21`, the IC50 fell in the range of 10 to 1000 nM.

In the case of `COc1ccc2c(c1)C=C(C(=O)N1CCC[C@H]1C(=O)N(C)C)Cn1c-2c(C2CCCCC2)c2ccc(C(=O)NS(=O)(=O)N(C)C)cc21`, the IC50 fell in the range of 10 to 1000 nM.

With `COc1ccc2c(c1)C=C(C(=O)N1CCC(Oc3ncccn3)CC1)Cn1c-2c(C2CCCCC2)c2ccc(C(=O)NS(=O)(=O)N(C)C)cc21`, the IC50 is 10 to 1000 nM.

Take `COc1ccc2c(c1)C=C(C(=O)N1CCN(c3nccs3)CC1)Cn1c-2c(C2CCCCC2)c2ccc(C(=O)NS(=O)(=O)N(C)C)cc21`: the concentration for half-maximal inhibition (IC50) lay within 10 to 1000 nM.

On to `COc1ccc2c(c1)C=C(C(=O)N1CCOC(c3ccccc3)C1)Cn1c-2c(C2CCCCC2)c2ccc(C(=O)NS(=O)(=O)N(C)C)cc21` (stereo not shown), for which the half-inhibitory concentration (IC50) was 10 to 1000 nM.

With `COc1ccc2c(c1)C=C(C(=O)N1CCn3cnnc3C1)Cn1c-2c(C2CCCCC2)c2ccc(C(=O)NS(=O)(=O)N(C)C)cc21`, the IC50 was in the range of 10 to 1000 nM.

Take `COc1ccc2c(c1)C=C(C(=O)N1CCN(c3ncncn3)CC1)Cn1c-2c(C2CCCCC2)c2ccc(C(=O)NS(=O)(=O)N(C)C)cc21`: the IC50 was 10 to 1000 nM.

As for `COc1ccc2c(c1)C=C(C(=O)NCCN1C[C@@H](C)O[C@@H](C)C1)Cn1c-2c(C2CCCCC2)c2ccc(C(=O)NS(=O)(=O)N(C)C)cc21`, the IC50 lay in the range of 10 to 1000 nM.

In the case of `COc1ccc2c(c1)C=C(C(=O)N(C)C1CCS(=O)(=O)C1)Cn1c-2c(C2CCCCC2)c2ccc(C(=O)NS(=O)(=O)N(C)C)cc21` (stereo not shown), the IC50 lay within 10 to 1000 nM.

On to `COc1ccc2c(c1)C=C(C(=O)N1CCS(=O)(=O)CC1)Cn1c-2c(C2CCCCC2)c2ccc(C(=O)NS(=O)(=O)N(C)C)cc21`, for which the IC50 was 10 to 1000 nM.

Turning to `O=C(NCc1nnn[nH]1)c1ccc2c(C3CCCCC3)c3n(c2c1)CC(C(=O)N1CCC(N2CCOCC2)CC1)=Cc1ccccc1-3`, the IC50 fell in the range of 10 to 1000 nM.

In the case of `O=C(NCc1ccccn1)c1ccc2c(C3CCCCC3)c3n(c2c1)CC(C(=O)N1CCC(N2CCOCC2)CC1)=Cc1ccccc1-3`, the concentration for half-maximal inhibition (IC50) fell in the range of 10 to 1000 nM.

In the case of `O=C(NCc1cn2ccccc2n1)c1ccc2c(C3CCCCC3)c3n(c2c1)CC(C(=O)N1CCC(N2CCOCC2)CC1)=Cc1ccccc1-3`, the IC50 fell in the range of 10 to 1000 nM.

For the molecule `Cc1cnc(CNC(=O)c2ccc3c(C4CCCCC4)c4n(c3c2)CC(C(=O)N2CCC(N3CCOCC3)CC2)=Cc2ccccc2-4)cn1`, the IC50 is 10 to 1000 nM.

`C[C@@H]1CN(C(=O)C2=Cc3c(ccc4c3OCO4)-c3c(C4CCCCC4)c4ccc(C(=O)O)cc4n3C2)C[C@H](C)O1`: the IC50 was in the range of 10 to 1000 nM.

Consider `COc1ccc2c(c1)C=C(C(=O)N1CCOC(CN3CCCC3)C1)Cn1c-2c(C2CCCCC2)c2ccc(C(=O)NS(=O)(=O)N(C)C)cc21` (stereo not shown), for which the IC50 lay in the range of 10 to 1000 nM.

Consider `O=C(NCc1ccco1)c1ccc2c(C3CCCCC3)c3n(c2c1)CC(C(=O)N1CCC(N2CCOCC2)CC1)=Cc1ccccc1-3`, for which the IC50 fell in the range of 10 to 1000 nM.

As to `O=C(NC[C@H]1CCCO1)c1ccc2c(C3CCCCC3)c3n(c2c1)CC(C(=O)N1CCC(N2CCOCC2)CC1)=Cc1ccccc1-3`, the IC50 lay in the range of 10 to 1000 nM.

With `COc1ccc2c(c1)C=C(C(=O)N1CCN(CC(F)(F)F)CC1)Cn1c-2c(C2CCCCC2)c2ccc(C(=O)NS(=O)(=O)N3CCOCC3)cc21`, the IC50 fell in the range of 10 to 1000 nM.

In the case of `COC(=O)c1ccc2c(C3CCCCC3)c3n(c2c1)CC(C(=O)NCc1ncco1)Cc1cc(OC)ccc1-3` (stereo not shown), the IC50 lay within 10 to 1000 nM.

In the case of `O=C(NS(=O)(=O)N1CCOCC1)c1ccc2c(C3CCCCC3)c3n(c2c1)CC(C(=O)N1CCN(CC(F)(F)F)CC1)=Cc1ccccc1-3`, the IC50 was in the range of 10 to 1000 nM.

Still in this assay, the particulars now being: Table 1b, read-out: IC50*.
Consider `COc1ccc2c(c1)C=C(C(=O)N1C[C@H](CO)[C@@H](O)[C@H](O)C1)Cn1c-2c(C2CCCCC2)c2ccc(C(=O)NS(=O)(=O)N(C)C)cc21`, for which the IC50 is under 20 nM.

Take `COc1ccc2c(c1)C=C(C(=O)N(C)[C@H](C)C(=O)N(C)C)Cn1c-2c(C2CCCCC2)c2ccc(C(=O)NS(=O)(=O)N(C)C)cc21`: the IC50 was under 20 nM.

With `COc1ccc2c(c1)C=C(C(=O)N(C)[C@H](C)C(=O)N1CCOCC1)Cn1c-2c(C2CCCCC2)c2ccc(C(=O)NS(=O)(=O)N(C)C)cc21`, the IC50 is under 20 nM.

Turning to `O=C(O)c1ccc2c(C3CCCCC3)c3n(c2c1)CC(C(=O)N1CCOC(CO)C1)=Cc1cc(F)ccc1-3` (stereo not shown), the IC50 lay within 20 to 1000 nM.
